Experimental data reported in publication doi:10.1101/2021.09.30.462449v1 (biorxiv, 2021).

Columns and labels:
Assay in all cases: biochemical
Settings in all cases: read-out: % inhibition mean (Lanthascreen)
ABL1 H396P = ABL1 H396P (Homo sapiens, UniProt P00519, H396P)
ABL1 Q252H = ABL1 Q252H (Homo sapiens, UniProt P00519, Q252H)
ACVR2B = ACVR2B (Homo sapiens, UniProt Q13705)
AMPK (A2/B2/G2) = AMPK (A2/B2/G2) (Homo sapiens, UniProt P54646)
BMPR1A (ALK3) = BMPR1A (ALK3) (Homo sapiens, UniProt P36894)
CDK8/cyclin C = CDK8/cyclin C (Homo sapiens, UniProt P49336)
DDR2 T654M = DDR2 T654M (Homo sapiens, UniProt Q16832, T654M)
FGFR1 V561M = FGFR1 V561M (Homo sapiens, UniProt P11362, V561M)
KIT T670E = KIT T670E (Homo sapiens, UniProt P10721, T670E)
KIT V559D T670I = KIT V559D T670I (Homo sapiens, UniProt P10721, T670I/V559D)
LIMK2 = LIMK2 (Homo sapiens, UniProt P53671)
MAP2K5 (MEK5) = MAP2K5 (MEK5) (Homo sapiens, UniProt Q13163)
MAPK15 (ERK7) = MAPK15 (ERK7) (Homo sapiens, UniProt Q8TD08)
MKNK2 (MNK2) = MKNK2 (MNK2) (Homo sapiens, UniProt Q9HBH9)
RET M918T = RET M918T (Homo sapiens, UniProt P07949, M918T)
RIPK2 = RIPK2 (Homo sapiens, UniProt O43353)
SIK1 = SIK1 (Homo sapiens, UniProt P57059)
STK16 (PKL12) = STK16 (PKL12) (Homo sapiens, UniProt O75716)
STK17A (DRAK1) = STK17A (DRAK1) (Homo sapiens, UniProt Q9UEE5)
STK32B (YANK2) = STK32B (YANK2) (Homo sapiens, UniProt Q9NY57)
STK38 (NDR) = STK38 (NDR) (Homo sapiens, UniProt Q15208)
STK39 (STLK3) = STK39 (STLK3) (Homo sapiens, UniProt Q9UEW8)
TAOK1 = TAOK1 (Homo sapiens, UniProt Q7L7X3)
TGFBR2 = TGFBR2 (Homo sapiens, UniProt P37173)
TNK2 (ACK) = TNK2 (ACK) (Homo sapiens, UniProt Q07912)
ULK2 = ULK2 (Homo sapiens, UniProt Q8IYT8)
ULK3 = ULK3 (Homo sapiens, UniProt Q6PHR2)
WNK1 = WNK1 (Homo sapiens, UniProt Q9H4A3)

MKNK2 (MNK2), sequence (Q9HBH9 whole entry): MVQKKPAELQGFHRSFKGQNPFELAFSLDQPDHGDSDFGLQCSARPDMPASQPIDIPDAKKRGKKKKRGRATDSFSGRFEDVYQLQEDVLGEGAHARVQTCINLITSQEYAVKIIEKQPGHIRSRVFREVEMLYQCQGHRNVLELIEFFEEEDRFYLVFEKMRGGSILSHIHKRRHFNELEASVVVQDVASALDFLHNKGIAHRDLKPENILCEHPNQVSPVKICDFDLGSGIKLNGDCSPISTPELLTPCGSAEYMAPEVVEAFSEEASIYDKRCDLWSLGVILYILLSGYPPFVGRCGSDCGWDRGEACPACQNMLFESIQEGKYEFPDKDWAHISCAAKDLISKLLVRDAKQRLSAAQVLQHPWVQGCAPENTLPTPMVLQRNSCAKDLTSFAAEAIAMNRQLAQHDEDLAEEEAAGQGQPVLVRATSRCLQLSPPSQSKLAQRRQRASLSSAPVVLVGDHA
STK16 (PKL12), sequence (O75716 whole entry): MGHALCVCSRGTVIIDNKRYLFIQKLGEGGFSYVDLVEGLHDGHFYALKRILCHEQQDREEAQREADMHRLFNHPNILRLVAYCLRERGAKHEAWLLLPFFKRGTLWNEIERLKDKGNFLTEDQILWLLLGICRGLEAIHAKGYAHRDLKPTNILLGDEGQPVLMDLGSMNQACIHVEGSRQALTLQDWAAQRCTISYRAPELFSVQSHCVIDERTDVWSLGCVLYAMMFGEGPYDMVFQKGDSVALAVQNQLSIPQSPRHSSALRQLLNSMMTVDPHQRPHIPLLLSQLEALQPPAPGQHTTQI
KIT T670E, sequence (P10721 whole entry T670E): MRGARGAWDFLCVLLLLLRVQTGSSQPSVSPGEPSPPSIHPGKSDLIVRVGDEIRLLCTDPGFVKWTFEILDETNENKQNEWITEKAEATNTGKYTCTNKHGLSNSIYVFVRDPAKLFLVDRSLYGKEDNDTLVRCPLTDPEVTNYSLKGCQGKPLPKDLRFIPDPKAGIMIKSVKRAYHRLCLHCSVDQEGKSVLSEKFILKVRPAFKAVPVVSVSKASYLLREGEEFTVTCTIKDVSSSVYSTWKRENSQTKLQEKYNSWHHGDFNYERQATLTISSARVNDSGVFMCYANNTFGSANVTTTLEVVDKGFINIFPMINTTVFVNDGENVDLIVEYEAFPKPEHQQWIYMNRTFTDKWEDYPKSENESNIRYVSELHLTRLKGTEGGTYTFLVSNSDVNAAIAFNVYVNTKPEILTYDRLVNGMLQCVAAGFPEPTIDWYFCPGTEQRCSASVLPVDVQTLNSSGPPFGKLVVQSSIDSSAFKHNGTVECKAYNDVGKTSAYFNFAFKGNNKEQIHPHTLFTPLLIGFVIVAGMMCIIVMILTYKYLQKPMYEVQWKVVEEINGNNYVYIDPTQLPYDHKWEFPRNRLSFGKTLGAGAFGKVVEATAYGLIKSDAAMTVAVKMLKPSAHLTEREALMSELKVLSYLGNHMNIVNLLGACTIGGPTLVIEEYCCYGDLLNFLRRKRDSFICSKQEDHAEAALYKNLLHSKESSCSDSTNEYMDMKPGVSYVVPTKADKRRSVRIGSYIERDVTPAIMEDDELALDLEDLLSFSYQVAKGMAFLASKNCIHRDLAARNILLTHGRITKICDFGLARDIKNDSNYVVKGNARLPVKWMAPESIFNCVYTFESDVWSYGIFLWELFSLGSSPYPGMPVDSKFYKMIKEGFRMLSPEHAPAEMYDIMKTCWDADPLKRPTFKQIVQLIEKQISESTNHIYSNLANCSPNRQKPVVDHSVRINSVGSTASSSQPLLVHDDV
STK17A (DRAK1), sequence (Q9UEE5 whole entry): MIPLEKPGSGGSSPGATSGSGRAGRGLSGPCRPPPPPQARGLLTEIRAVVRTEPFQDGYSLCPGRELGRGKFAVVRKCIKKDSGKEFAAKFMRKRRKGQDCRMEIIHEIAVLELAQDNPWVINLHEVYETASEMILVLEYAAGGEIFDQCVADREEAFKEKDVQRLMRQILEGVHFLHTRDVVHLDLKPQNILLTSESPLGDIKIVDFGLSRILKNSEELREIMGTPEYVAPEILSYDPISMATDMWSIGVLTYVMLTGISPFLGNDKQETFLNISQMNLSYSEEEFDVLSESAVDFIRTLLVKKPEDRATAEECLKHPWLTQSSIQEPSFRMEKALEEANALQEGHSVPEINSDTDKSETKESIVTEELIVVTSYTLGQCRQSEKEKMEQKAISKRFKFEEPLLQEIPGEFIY
ACVR2B, sequence (Q13705 whole entry): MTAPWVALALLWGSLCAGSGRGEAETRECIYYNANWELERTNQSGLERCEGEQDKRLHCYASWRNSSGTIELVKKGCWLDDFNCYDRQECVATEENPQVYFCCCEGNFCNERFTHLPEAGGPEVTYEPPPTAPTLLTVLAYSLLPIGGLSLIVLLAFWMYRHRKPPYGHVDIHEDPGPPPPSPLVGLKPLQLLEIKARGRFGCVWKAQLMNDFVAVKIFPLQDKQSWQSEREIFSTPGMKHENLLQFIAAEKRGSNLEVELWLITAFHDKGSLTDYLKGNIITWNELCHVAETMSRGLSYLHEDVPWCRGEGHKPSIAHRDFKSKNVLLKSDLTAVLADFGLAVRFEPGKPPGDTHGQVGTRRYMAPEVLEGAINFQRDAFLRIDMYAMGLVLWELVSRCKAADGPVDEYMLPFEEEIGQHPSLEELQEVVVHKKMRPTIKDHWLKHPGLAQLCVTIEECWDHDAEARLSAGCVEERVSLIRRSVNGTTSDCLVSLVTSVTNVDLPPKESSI
TGFBR2, sequence (P37173 whole entry): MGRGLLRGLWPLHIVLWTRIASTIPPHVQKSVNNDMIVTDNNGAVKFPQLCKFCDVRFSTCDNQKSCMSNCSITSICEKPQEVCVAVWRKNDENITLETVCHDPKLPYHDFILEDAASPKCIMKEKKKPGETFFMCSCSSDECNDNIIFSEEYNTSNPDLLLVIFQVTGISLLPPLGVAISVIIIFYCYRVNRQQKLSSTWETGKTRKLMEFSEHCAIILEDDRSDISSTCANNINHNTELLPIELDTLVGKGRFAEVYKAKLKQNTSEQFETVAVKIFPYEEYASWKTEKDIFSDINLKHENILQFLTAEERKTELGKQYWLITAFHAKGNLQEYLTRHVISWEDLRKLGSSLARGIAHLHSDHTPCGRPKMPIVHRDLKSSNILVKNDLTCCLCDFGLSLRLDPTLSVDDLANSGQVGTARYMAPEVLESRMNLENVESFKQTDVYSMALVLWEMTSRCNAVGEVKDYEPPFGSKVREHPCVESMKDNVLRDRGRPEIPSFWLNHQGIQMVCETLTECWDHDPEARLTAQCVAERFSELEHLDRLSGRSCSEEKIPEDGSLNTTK
DDR2 T654M, sequence (Q16832 whole entry T654M): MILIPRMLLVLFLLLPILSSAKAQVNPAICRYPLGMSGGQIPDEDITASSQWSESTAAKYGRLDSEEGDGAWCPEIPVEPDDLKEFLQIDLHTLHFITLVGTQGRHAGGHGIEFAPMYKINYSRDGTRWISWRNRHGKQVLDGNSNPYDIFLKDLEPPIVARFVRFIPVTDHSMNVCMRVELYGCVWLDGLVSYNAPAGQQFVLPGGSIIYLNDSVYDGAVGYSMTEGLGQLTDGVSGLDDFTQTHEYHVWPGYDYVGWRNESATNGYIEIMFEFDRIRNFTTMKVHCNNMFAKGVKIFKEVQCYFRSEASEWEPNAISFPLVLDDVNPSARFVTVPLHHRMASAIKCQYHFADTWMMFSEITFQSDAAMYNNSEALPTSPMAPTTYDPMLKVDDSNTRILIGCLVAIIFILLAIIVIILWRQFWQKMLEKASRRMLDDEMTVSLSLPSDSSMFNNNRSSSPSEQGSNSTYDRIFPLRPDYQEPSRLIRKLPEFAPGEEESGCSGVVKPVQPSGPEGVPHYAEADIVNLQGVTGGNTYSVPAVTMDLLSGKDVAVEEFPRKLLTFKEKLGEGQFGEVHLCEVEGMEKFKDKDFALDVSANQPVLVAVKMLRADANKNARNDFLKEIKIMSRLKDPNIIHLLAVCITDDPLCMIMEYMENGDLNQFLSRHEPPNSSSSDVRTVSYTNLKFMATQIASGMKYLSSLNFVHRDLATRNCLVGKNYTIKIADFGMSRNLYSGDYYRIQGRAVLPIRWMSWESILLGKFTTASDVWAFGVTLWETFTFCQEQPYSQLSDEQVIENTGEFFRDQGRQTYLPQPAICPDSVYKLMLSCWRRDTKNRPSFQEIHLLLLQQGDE
STK38 (NDR), sequence (Q15208 whole entry): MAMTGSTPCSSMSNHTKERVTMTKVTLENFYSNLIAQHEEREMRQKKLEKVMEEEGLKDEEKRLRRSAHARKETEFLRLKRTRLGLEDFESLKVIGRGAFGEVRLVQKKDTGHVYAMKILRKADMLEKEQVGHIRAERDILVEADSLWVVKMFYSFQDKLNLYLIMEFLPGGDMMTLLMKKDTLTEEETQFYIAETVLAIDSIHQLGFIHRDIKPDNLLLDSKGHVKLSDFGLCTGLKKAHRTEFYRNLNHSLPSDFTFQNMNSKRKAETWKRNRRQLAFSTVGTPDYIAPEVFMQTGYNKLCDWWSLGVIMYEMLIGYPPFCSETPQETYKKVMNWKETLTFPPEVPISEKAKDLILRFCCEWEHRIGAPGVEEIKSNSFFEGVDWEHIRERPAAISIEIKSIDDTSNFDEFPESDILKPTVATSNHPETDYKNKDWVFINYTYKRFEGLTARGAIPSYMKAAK
KIT V559D T670I, sequence (P10721 whole entry V559D/T670I): as the sequence (P10721 whole entry T670E) above, with V559D, E670I counted along it
STK32B (YANK2), sequence (Q9NY57 whole entry): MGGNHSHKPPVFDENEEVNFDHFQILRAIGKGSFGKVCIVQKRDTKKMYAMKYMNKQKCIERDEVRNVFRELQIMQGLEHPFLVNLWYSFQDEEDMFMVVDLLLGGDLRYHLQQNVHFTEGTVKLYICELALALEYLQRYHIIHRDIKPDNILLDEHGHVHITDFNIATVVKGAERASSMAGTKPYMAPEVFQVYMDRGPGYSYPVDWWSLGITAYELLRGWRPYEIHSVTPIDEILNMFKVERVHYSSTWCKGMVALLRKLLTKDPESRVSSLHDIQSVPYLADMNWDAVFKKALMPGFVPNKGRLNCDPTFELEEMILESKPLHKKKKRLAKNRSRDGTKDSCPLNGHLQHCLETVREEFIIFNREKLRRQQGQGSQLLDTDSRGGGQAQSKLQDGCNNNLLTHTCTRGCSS

## COc1ccc2nc3cc(Cl)ccc3c(Nc3cc(CN4CCCC4)c(O)c(CN4CCCC4)c3)c2n1 [Pyronaridine, 4-[(7-Chloro-2-methoxybenzo[b][1,5]naphthyridin-10-yl)amino]-2,6-bis(1-pyrrolidinylmethyl)phenol phosphate (1:4)]
ABL1 H396P
  inhibition at 1 µM: 7%
ABL1 Q252H
  inhibition at 1 µM: -10%
ACVR2B
  inhibition at 1 µM: 8%
AMPK (A2/B2/G2)
  inhibition at 1 µM: 3%
BMPR1A (ALK3)
  inhibition at 1 µM: 10%
CDK8/cyclin C
  inhibition at 1 µM: 3%
DDR2 T654M
  inhibition at 1 µM: -11%
FGFR1 V561M
  inhibition at 1 µM: 5%
KIT T670E
  inhibition at 1 µM: 1%
KIT V559D T670I
  inhibition at 1 µM: -10%
LIMK2
  inhibition at 1 µM: -1%
MAP2K5 (MEK5)
  inhibition at 1 µM: 1%
MAPK15 (ERK7)
  inhibition at 1 µM: -11%
MKNK2 (MNK2)
  inhibition at 1 µM: 2%
RET M918T
  inhibition at 1 µM: -3%
RIPK2
  inhibition at 1 µM: 1%
SIK1
  inhibition at 1 µM: 2%
STK16 (PKL12)
  inhibition at 1 µM: 5%
STK17A (DRAK1)
  inhibition at 1 µM: 1%
STK32B (YANK2)
  inhibition at 1 µM: 0%
STK38 (NDR)
  inhibition at 1 µM: 2%
STK39 (STLK3)
  inhibition at 1 µM: -19%
TAOK1
  inhibition at 1 µM: -4%
TGFBR2
  inhibition at 1 µM: -4%
TNK2 (ACK)
  inhibition at 1 µM: 1%
ULK2
  inhibition at 1 µM: 2%
ULK3
  inhibition at 1 µM: 8%
WNK1
  inhibition at 1 µM: 4%
